Key:
Type in all cases: cell-based
A2780 (ovarian cancer) = assay: IC50 against tumor cell line A2780, CellTiter-Glo cell viability; details: A2780 cells, 96 hours, mean ± standard deviation of triplicate
Description: (§1) Example 11: evaluation of the therapeutic efficacy of the compounds of the invention.
(§2) Tests were carried out to determine the inhibitory concentration (IC50) of the compounds of the invention against tumor cell lines and on a control cell line; for comparison, the same tests were carried out with the cisplatin compound.
(§3) The cell lines tested were: A2780 and A2780cis, (ovarian cancer), MDA-MB231 (triple-negative breast cancer) and DLD1 (colon cancer) and MRC-5 (control; lung fibroblasts).
(§4) The stock solutions were obtained in dimethyl sulfoxide for compounds I-X and in H^20 for cisplatin.
(§5) The cells were kept, in accordance with the protocols indicated by the suppliers, at 37° C. in an atmosphere containing 5% carbon dioxide. About 500 cells were plated on 96 different wells and kept under such conditions for 96 hours.
(§6) Cell viability was determined, after treatment of the cells with a 1:1 solution of CellTiter-Glo® (registered trademark of Promega Corp., Madison, Wisconsin, USA) and DPBS, with the Tecan Infinite® M1000 instrument. IC50 values were calculated from dose response curves. The means and standard deviations were obtained from tripled measurements.

[1] = test system: A2780cis (ovarian cancer); assay: IC50 against tumor cell line A2780cis, CellTiter-Glo cell viability
Description: as §1, §2, §3, §4, §5, §6

[2] = test system: MDA-MB231 (triple-negative breast cancer); assay: IC50 against tumor cell line MDA-MB231, CellTiter-Glo cell viability; details: MDA-MB231 cells, 96 hours, mean ± standard deviation of triplicate
Description: as §1, §2, §3, §4, §5, §6

DLD1 (colon cancer) = assay: IC50 against tumor cell line DLD1, CellTiter-Glo cell viability; details: DLD1 cells, 96 hours, mean ± standard deviation of triplicate
Description: as §1, §2, §3, §4, §5, §6

[3] = test system: MRC-5 (control; lung fibroblasts); assay: IC50 on control cell line MRC-5, CellTiter-Glo cell viability; details: MRC-5 normal cells
Description: as §1, §2, §3, §4, §5, §6

## N.N.[Cl][Pt][Cl] [CISPLATIN, cis-diaminodichloroplatin (II)]
A2780 (ovarian cancer)
  IC50: 0.4 ± 0.1 µM
[1]; A2780cis cells, 96 hours, mean ± standard deviation of triplicate, read-out: IC50 (μM) A2780 cis
  IC50: 27 ± 5 µM
[2]
  IC50: 37 ± 9 µM
DLD1 (colon cancer)
  IC50: 0.63 ± 0.08 µM
[3]; 96 hours, mean ± standard deviation of triplicate
  IC50: 8 ± 1 µM

## COC(=O)/C(C)=C(C(=O)OC)/C(C(=O)OC)=[C](/C(=O)OC)[Pd]1([Cl])[CH]2N(Cc3ccccc3)C=CN2CN2C=CN(Cc3ccccc3)[CH]21 (stereo not shown) [Compound VII]
[1]; A2780 vs A2780cis
  loss of activity between the two lines (A2780 to A2780cis): ca. one order of magnitude
[3]
  activity against normal cells (MRC-5), in words: substantially inactive

From patent US20240270776A1, “PALLADIUM VINYL AND BUTADIENYL COMPOUNDS AS CHEMOTHERAPEUTIC AGENTS” (UNIVERSITÀ CA' FOSCARI VENEZIA, priority 2021, published 2024)
